Measured values taken from patent US9296716B2, “Androgen receptor ligands” (THE PROVOST, FELLOWS, FOUNDATION SCHOLARS, & THE OTHER …, priority 2011, dated 2016).

How the values were obtained:
[1] = molecular target: T1, Glucocorticoid Receptor (GR) LBD (Homo sapiens, UniProt P04150); test: TR-FRET SRC1-4 coactivator recruitment assay, GR LBD; assay type: biochemical; conditions: Dexamethasone = EC80
T1 construct: purchased Invitrogen PV4683
T1 sequence (P04150 524-758 limits assumed): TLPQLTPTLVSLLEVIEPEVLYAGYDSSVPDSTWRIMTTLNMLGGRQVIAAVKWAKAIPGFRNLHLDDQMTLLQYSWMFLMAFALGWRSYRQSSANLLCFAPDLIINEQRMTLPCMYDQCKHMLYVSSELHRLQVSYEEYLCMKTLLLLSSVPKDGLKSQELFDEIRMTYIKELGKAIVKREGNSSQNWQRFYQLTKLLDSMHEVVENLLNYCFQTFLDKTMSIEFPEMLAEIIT
Experimental: (§1) Compound binding affinities for Progesterone Receptor (PR), Glucocorticoid Receptor (GR), Estrogen Receptor alpha and Estrogen Receptor beta were determined using TR-FRET (Table 2).
Dexamethasone bound receptor recruitment of the fluorescently labelled SCR1-4 coactivator was unimpaired at screening concentrations up to 100 μM for all the diarylhydrazides evaluated (FIG. 5).
(§2) Lanthascreen TR-FRET AR Coactivator Assay kit (Invitrogen, cat no. PV4381) was used to screen for potential coactivator disruptors.
(§3) TR FRET values were calculated at 10 flashes per well, using a delay time of 100 μs and integration time 200 μs as recommended by the Invitrogen assay guidelines. […] A serial dilution of compounds was firstly prepared in 100×DMSO (Sigma-Aldrich) starting from the maximum desired concentration to achieve a 12 point range concentration using 96-well polypropylene plates (Nalgene Nunc, Rochester, N.Y.). Each 100× solution was diluted to 2× concentration with TR-FRET co-regulator buffer A (Invitrogen proprietary buffer), yielding a final concentration of 1% DMSO in each well.
(§4) D11-FxxLF and Tb antibody were premixed in light protecting vials prior to use. A final concentration of DTT 5 mM was used in the assay buffer in order to prevent protein degradation. All plates (agonist and antagonist mode) were incubated between 2 and 4 hours at room temperature protected from light prior to TR-FRET measurement. […] Data was fitted using the sigmoidal dose response (variable slope) available from Graphpad Prism 5. Y=Bottom+(Top-Bottom)/(1+10^((Log IC50−X)*HillSlope))
(§5) The same procedure was used for AR T877A (Invitrogen cat no. PV4667), PR (Invitrogen cat no. PV4666), ER-α (Invitrogen cat no. PV4544), ER-β (Invitrogen cat no. PV4541) and GR (Invitrogen cat no. PV4683). The assay was adapted to exclude possible non-specific aggregation mechanism of inhibition by adding very low concentration of detergent Triton X-100 (0.001%) to the assay buffer following the Shoichet review guidelines [Shoichet BK (2006) Screening in a spirit haunted world. Drug Discov Today 11:607-615].

[2] = molecular target: T2, Progesterone Receptor (PR) LBD (Homo sapiens, UniProt P06401); test: TR-FRET SRC1-4 coactivator recruitment assay, PR LBD; assay type: biochemical; conditions: Progesterone = EC80
T2 construct: purchased Invitrogen PV4666
T2 sequence (P06401 679-913 limits assumed): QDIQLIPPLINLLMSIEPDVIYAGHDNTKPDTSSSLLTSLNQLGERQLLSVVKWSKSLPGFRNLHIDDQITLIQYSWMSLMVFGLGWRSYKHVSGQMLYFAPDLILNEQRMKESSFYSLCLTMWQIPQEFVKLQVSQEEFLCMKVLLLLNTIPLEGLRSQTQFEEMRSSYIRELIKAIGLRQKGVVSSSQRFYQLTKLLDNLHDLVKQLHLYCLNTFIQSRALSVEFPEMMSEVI
Experimental: as §1, §2, §3, §4, §5

[3] = molecular target: Estrogen Receptor beta (ER-β) LBD (Homo sapiens, UniProt Q92731); test: TR-FRET PGC1-α coactivator recruitment assay, ERβ LBD; assay type: biochemical; conditions: Estradiol = EC80
Estrogen Receptor beta (ER-β) LBD, sequence (Q92731 264-498 limits assumed): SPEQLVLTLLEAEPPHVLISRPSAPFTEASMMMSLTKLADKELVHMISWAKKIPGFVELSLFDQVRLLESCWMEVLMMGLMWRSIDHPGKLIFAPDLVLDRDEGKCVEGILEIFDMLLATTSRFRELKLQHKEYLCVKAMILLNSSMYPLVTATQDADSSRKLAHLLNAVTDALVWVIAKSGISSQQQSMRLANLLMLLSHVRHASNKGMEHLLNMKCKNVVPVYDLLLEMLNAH
Experimental: as §1
Selectivity of the diarylhydrazide scaffold for the AR was determined through a TR-FRET assay in ERα (FIGS. 8A & 9A1) and ERR (FIGS. 8B & 9A2). […] The non-LBP nature of this inhibition was confirmed by a FP assay (FIGS. 9C, 9B1 & 9B2).
as §2, §3, §4, §5

[4] = test system: PSA expression in LNCaP cells; test: PSA ELISA, secreted PSA in LNCaP cells; assay type: cell-based
Experimental: (§6) To investigate compounds effect on PSA expression, a common biomarker for prostate cancer, we utilized a human PSA ELISA assay.
For cell viability (end point) assays LNCaP, PC-3 and PWR-1E cells were seeded at 2.5*10^4/ml density in 200 μl volume of a 96-well plate in triplicate and incubated for 24 hours prior testing. Test compounds were included at different concentrations to achieve a final concentration of 0.5% DMSO in each well. Effect of 0.5% DMSO on cell-viability was also evaluated. Cell viability was assessed after 24 hours of treatment using 10% Alamar Blue reagent (Invitrogen) for each well. Cell viability was monitored by the reduction of resazurin, a blue, cell-permeable and non-toxic compound, to resorufin, a red and highly fluorescent product. Viable cells continuously convert resazurin to resorufin, increasing the overall colour and fluorescence of the media surrounding cells. Fluorescence intensity can be quantitatively determined with a fluorescence microplate reader at excitation/emission 544 nm/590 nm (Spectramax Gemini). For hormone dependent cell proliferation assays in androgen deprived LNCaP cells, cells were seeded at 2*10^4 cells/ml in a 24-well plate in triplicate. Cells were plated in phenol red free RPMI Glutamax (Invitrogen) supplemented with 10% charcoal-stripped FBS to deplete endogenous steroids 48 hours prior the assay as described in previous reports. […] Cells were treated with different concentrations of test compounds with or without 0.1 nM DHT to achieve a final concentration of 0.1% DMSO in each well. A control for the vehicle was included to ensure no effect on viability could be detected. Media and treatments were replaced every second day, after washing the cells twice with 1×PBS. Supernatants were collected after five days for secreted PSA levels evaluation and cell proliferation was assessed for the same plate using Alamar Blue in order to exclude non-specific effects due to toxicity issues.
Secreted levels of prostate specific antigen were evaluated with a commercially available kit (Quantikine Human Kallikrein 3/PSA Immunoassay, R&D systems). The assay was performed following manufacturer's guidelines. In brief, 50 μl of standards and cell culture samples were added to pre-coated wells containing assay diluent RD1W (R&D systems) and incubated for two hours at room temperature. […] Wells were washed and treated with colored substrate (Tetramethylbenzidine) for an additional 30 minutes, after which 50 μl of stop solution (Sulphuric Acid 2N) was added per well and absorbance (450 nm with correction at 540 nm) was read with a plate reader within 30 minutes (Versamax).

[5] = test system: PSA expression in 22Rv1 cells; test: PSA ELISA, secreted PSA in 22Rv1 cells; assay type: cell-based
Experimental: as §6
We repeated the same experiment in 22Rv1 cell line.
Secreted levels of prostate specific antigen were evaluated with a commercially available kit (Quantikine Human Kallikrein 3/PSA Immunoassay, R&D systems). The assay was performed following manufacturer's guidelines. In brief, 50 μl of standards and cell culture samples were added to pre-coated wells containing assay diluent RD1W (R&D systems) and incubated for two hours at room temperature. Unbound material was washed several times and 200 μl of Horseradish Peroxidase (HRP) labeled PSA conjugate antibody was added to each well and further incubated for two hours at room temperature. Wells were washed and treated with colored substrate (Tetramethylbenzidine) for an additional 30 minutes, after which 50 μl of stop solution (Sulphuric Acid 2N) was added per well and absorbance (450 nm with correction at 540 nm) was read with a plate reader within 30 minutes (Versamax).

With `COc1cc(/C=N/NC(=O)c2cc3c(ccc4ccccc43)o2)cc(OC)c1O` [MDG506] the “effect on SRC1-4 recruitment by GR LBD” value ([1]; 100 μM to 12.5 μM or single point 100 μM) was “do not affect”, the IC50 ([1]; TR-FRET, ± SEM (n = 6), read-out: NR LBDs IC50 (μM) GR) was > 100 µM and the “effect on PR recruitment of fluorescent labelled SRC1-4” value ([2]; 100 μM to 45 nM) was “partially inhibit”. The IC50 ([2]; TR-FRET, ± SEM (n = 6), read-out: NR LBDs IC50 (μM) PR) was 27.7 ± 7.3 µM, the “effect on ERβ recruitment of fluorescent labelled PGC1-α” value ([3]; 100 μM to 45 nM) was “partially inhibit” and the IC50 ([3]; TR-FRET, ± SEM (n = 6), read-out: NR LBDs IC50 (μM) ER-β) was > 100 µM. The “PSA expression in absence of androgens” value [4] was “does not induce”, the “CPA stimulated PSA secretion / expression” value ([4]; MDG506 at 10 or 20 μM) was “significantly (P<0.001) reduces” and the “DHT stimulated PSA expression” value ([4]; concentrations up to 20 μM) was “dose dependent inhibition”. The “DHT stimulated PSA expression” value ([5]; 22Rv1) was “no effect could be seen”, the “PSA expression in absence of androgens” value ([5]; 22Rv1) was “does not induce” and the “CPA stimulated PSA expression” value ([5]; 22Rv1, MDG506 at different concentrations) was “reduced”.
